Laboratory results published in patent US20260224524A1, “A PHARMACEUTICAL COMPOSITION TARGETING MUTANT P53 AND HER2” (DR DOZO LABORATORIES, priority 2023, published 2026).

System: human tumour xenograft MDA-MB-231
Assay: Human tumour xenograft MDA-MB-231 model, tumour volume and relative tumour volume
Assay type: in vivo, mice
Parameters: Tumor Volume: unit not given here
Details: Group B; for RTV (Relative Tumour Volume): 2.5 mg/kg i.v. day 1, 5, 9
Description: The therapeutic effect of SACC is evaluated against triple-negative breast cancer cell line MDA-MB-231 by analysing tumour volume and relative tumour volume. The study involved the use of six mice. These mice were administrated treatment according to the following Groups: […]

## COc1cccc2c1C(=O)c1c(O)c3c(c(O)c1C2=O)C[C@@](O)(C(=O)CO)C[C@@H]3O[C@H]1C[C@H](N)[C@H](O)[C@H](C)O1 [ADR, Adriamycin]
Day 9
  RTV (Relative Tumour Volume): 0.95
Day 15
  RTV (Relative Tumour Volume): 1.63
Day 18
  RTV (Relative Tumour Volume): 1.93
Day 21
  RTV (Relative Tumour Volume): 2.29
Day 25
  RTV (Relative Tumour Volume): 4.22
Day 30
  RTV (Relative Tumour Volume): 7.30
ADR 2.5 mg/Kg
  tumour volume (in words): decreased tumour volume
ADR 2.5 mg/Kg, day 1, Mouse 1
  Tumor Volume: 0.06
ADR 2.5 mg/Kg, day 1, Mouse 2
  Tumor Volume: 0.05
ADR 2.5 mg/Kg, day 1, Mouse 3
  Tumor Volume: 0.06
ADR 2.5 mg/Kg, day 1, Mouse 4
  Tumor Volume: 0.05
ADR 2.5 mg/Kg, day 1, Mouse 5
  Tumor Volume: 0.06
ADR 2.5 mg/Kg, day 1, Mouse 6
  Tumor Volume: 0.06
ADR 2.5 mg/Kg, day 5, Mouse 1
  Tumor Volume: 0.05
ADR 2.5 mg/Kg, day 5, Mouse 2
  Tumor Volume: 0.07
ADR 2.5 mg/Kg, day 5, Mouse 3
  Tumor Volume: 0.06
ADR 2.5 mg/Kg, day 5, Mouse 4
  Tumor Volume: 0.06
ADR 2.5 mg/Kg, day 5, Mouse 5
  Tumor Volume: 0.05
ADR 2.5 mg/Kg, day 5, Mouse 6
  Tumor Volume: 0.06
ADR 2.5 mg/Kg, day 9, Mouse 1
  Tumor Volume: 0.05
ADR 2.5 mg/Kg, day 9, Mouse 2
  Tumor Volume: 0.08
ADR 2.5 mg/Kg, day 9, Mouse 3
  Tumor Volume: 0.04
ADR 2.5 mg/Kg, day 9, Mouse 4
  Tumor Volume: 0.04
ADR 2.5 mg/Kg, day 9, Mouse 5
  Tumor Volume: 0.06
ADR 2.5 mg/Kg, day 9, Mouse 6
  Tumor Volume: 0.05
ADR 2.5 mg/Kg, day 12, Mouse 1
  Tumor Volume: 0.06
ADR 2.5 mg/Kg, day 12, Mouse 2
  Tumor Volume: 0.10
ADR 2.5 mg/Kg, day 12, Mouse 3
  Tumor Volume: 0.05
ADR 2.5 mg/Kg, day 12, Mouse 4
  Tumor Volume: 0.05
ADR 2.5 mg/Kg, day 12, Mouse 5
  Tumor Volume: 0.06
ADR 2.5 mg/Kg, day 12, Mouse 6
  Tumor Volume: 0.07
ADR 2.5 mg/Kg, day 15, Mouse 1
  Tumor Volume: 0.07
ADR 2.5 mg/Kg, day 15, Mouse 2
  Tumor Volume: 0.16
ADR 2.5 mg/Kg, day 15, Mouse 3
  Tumor Volume: 0.07
ADR 2.5 mg/Kg, day 15, Mouse 4
  Tumor Volume: 0.06
ADR 2.5 mg/Kg, day 15, Mouse 5
  Tumor Volume: 0.08
ADR 2.5 mg/Kg, day 15, Mouse 6
  Tumor Volume: 0.11
ADR 2.5 mg/Kg, day 18, Mouse 1
  Tumor Volume: 0.07
ADR 2.5 mg/Kg, day 18, Mouse 2
  Tumor Volume: 0.21
ADR 2.5 mg/Kg, day 18, Mouse 3
  Tumor Volume: 0.07
ADR 2.5 mg/Kg, day 18, Mouse 4
  Tumor Volume: 0.07
ADR 2.5 mg/Kg, day 18, Mouse 5
  Tumor Volume: 0.07
ADR 2.5 mg/Kg, day 18, Mouse 6
  Tumor Volume: 0.16
ADR 2.5 mg/Kg, day 21, Mouse 1
  Tumor Volume: 0.05
ADR 2.5 mg/Kg, day 21, Mouse 2
  Tumor Volume: 0.23
ADR 2.5 mg/Kg, day 21, Mouse 3
  Tumor Volume: 0.08
ADR 2.5 mg/Kg, day 21, Mouse 4
  Tumor Volume: 0.11
ADR 2.5 mg/Kg, day 21, Mouse 5
  Tumor Volume: 0.13
ADR 2.5 mg/Kg, day 21, Mouse 6
  Tumor Volume: 0.17
ADR 2.5 mg/Kg, day 25, Mouse 1
  Tumor Volume: 0.08
ADR 2.5 mg/Kg, day 25, Mouse 2
  Tumor Volume: 0.31
ADR 2.5 mg/Kg, day 25, Mouse 3
  Tumor Volume: 0.33
ADR 2.5 mg/Kg, day 25, Mouse 4
  Tumor Volume: 0.24
ADR 2.5 mg/Kg, day 25, Mouse 5
  Tumor Volume: 0.17
ADR 2.5 mg/Kg, day 25, Mouse 6
  Tumor Volume: 0.29
ADR 2.5 mg/Kg, day 30, Mouse 2
  Tumor Volume: 0.53
ADR 2.5 mg/Kg, day 30, Mouse 3
  Tumor Volume: 0.55
ADR 2.5 mg/Kg, day 30, Mouse 4
  Tumor Volume: 0.29
ADR 2.5 mg/Kg, day 30, Mouse 5
  Tumor Volume: 0.28
ADR 2.5 mg/Kg, day 30, Mouse 6
  Tumor Volume: 0.40
